Test results reported in patent publication US5534508A, “Cephem compounds and antimicrobial agents” (Katayama Seiyakusyo Co., Ltd., priority 1993, dated 1996).
Converted amounts (≈) assume the structure as drawn.

Experiments:
Type in all cases: cell-based
P. mirabilis IFO 3849 = test: MIC against standard strains (Table 1), P. mirabilis IFO 3849; details: Proteus mirabilis, IFO3849, Muller-Hinton agar, overnight 37° C., read-out: MIC (minimum growth inhibitory concentration)
Description: (§1) The minimum growth inhibitory concentration (MIC, μg/ml) of the compounds for each of the 25 standard laboratory strains (standard strains) shown in Table 1 was determined in accordance with the standard method of the Japan Chemotherapical Society (Chemotherapy, 29, 76-79 (1981) under "Re-revision of the measuring methods of minimum growth inhibitory concentration (MIC)").
(§2) That is, by using each test strain cultured overnight at 37° C. in a Muller-Hinton broth, there was prepared a bacterial solution with a cell density of 1×10^6 CFU/ml in the same broth. The bacterial solution was inoculated into the Muller-Hinton agar media each containing respectively one test agent (i.e., compound) and, after overnight incubation at 37° C., the minimum concentration that inhibited growth of the bacteria was determined and expressed as MIC.
(§3) Staphylococcus aureus 167 and Staphylococcus aureus 195 used in the test were MRSA. CTM (cefotiam) and FMOX (flomoxef) were used as the control agents.

K. pneuminiae IFO 3317 = test: MIC against standard strains (Table 1), K. pneuminiae IFO 3317; details: Muller-Hinton agar, overnight 37° C., read-out: MIC (minimum growth inhibitory concentration)
Description: as §1, §2, §3

E. cloacae Nek39 = test: MIC against standard strains (Table 1), E. cloacae Nek39; details: Enterobacter cloacae, Muller-Hinton agar, overnight 37° C., read-out: MIC (minimum growth inhibitory concentration)
Description: as §1, §2, §3

B. subtilis ATCC 6633 = test: MIC against standard strains (Table 1), B. subtilis ATCC 6633; details: Bacillus subtilis, ATCC6633, Muller-Hinton agar, overnight 37° C., read-out: MIC (minimum growth inhibitory concentration)
Description: as §1, §2, §3

E. cloacae ATCC 13407 = test: MIC against standard strains (Table 1), E. cloacae ATCC 13407; details: Enterobacter cloacae, ATCC13407, Muller-Hinton agar, overnight 37° C., read-out: MIC (minimum growth inhibitory concentration)
Description: as §1, §2, §3

P. vulugaris OX-19 = test: MIC against standard strains (Table 1), P. vulugaris OX-19; details: Muller-Hinton agar, overnight 37° C., read-out: MIC (minimum growth inhibitory concentration)
Description: as §1, §2, §3

S. aureus 195 = test: MIC against standard strains (Table 1), S. aureus 195 (MRSA); details: Staphylococcus aureus, Muller-Hinton agar, overnight 37° C., read-out: MIC (minimum growth inhibitory concentration)
Description: as §1, §2, §3

A. faecalis ATCC 3750 = test: MIC against standard strains (Table 1), A. faecalis ATCC 3750; details: Alcaligenes faecalis, ATCC3750, Muller-Hinton agar, overnight 37° C., read-out: MIC (minimum growth inhibitory concentration)
Description: as §1, §2, §3

S. aureus Smith = test: MIC against standard strains (Table 1), S. aureus Smith; details: Staphylococcus aureus, Muller-Hinton agar, overnight 37° C., read-out: MIC (minimum growth inhibitory concentration)
Description: as §1, §2, §3

E. coli JC-2 = test: MIC against standard strains (Table 1), E. coli JC-2; details: Escherichia coli, JC2, Muller-Hinton agar, overnight 37° C., read-out: MIC (minimum growth inhibitory concentration)
Description: as §1, §2, §3

M. morganii IFO 3848 = test: MIC against standard strains (Table 1), M. morganii IFO 3848; details: Morganella morganii, IFO3848, Muller-Hinton agar, overnight 37° C., read-out: MIC (minimum growth inhibitory concentration)
Description: as §1, §2, §3

K. pneuminiae No. 42 = test: MIC against standard strains (Table 1), K. pneuminiae No. 42; details: Muller-Hinton agar, overnight 37° C., read-out: MIC (minimum growth inhibitory concentration)
Description: as §1, §2, §3

M. luteus ATCC 9341 = test: MIC against standard strains (Table 1), M. luteus ATCC 9341; details: Micrococcus luteus, ATCC9341, Muller-Hinton agar, overnight 37° C., read-out: MIC (minimum growth inhibitory concentration)
Description: as §1, §2, §3

E. coli CSH2(RK1) = test: MIC against standard strains (Table 1), E. coli CSH2(RK1); details: Escherichia coli, read-out: MIC (minimum growth inhibitory concentration)
Description: as §1, §2, §3

S. marcescens No. 16-2 = test: MIC against standard strains (Table 1), S. marcescens No. 16-2; details: Serratia marcescens, NO.162, Muller-Hinton agar, overnight 37° C., read-out: MIC (minimum growth inhibitory concentration)
Description: as §1, §2, §3

S. marcescens IAM 1184 = test: MIC against standard strains (Table 1), S. marcescens IAM 1184; details: Serratia marcescens, IAM1184, Muller-Hinton agar, overnight 37° C., read-out: MIC (minimum growth inhibitory concentration)
Description: as §1, §2, §3

E. coli CSH2(RE45) = test: MIC against standard strains (Table 1), E. coli CSH2(RE45); details: Escherichia coli, read-out: MIC (minimum growth inhibitory concentration)
Description: as §1, §2, §3

S. aureus 209p JC-1 = test: MIC against standard strains (Table 1), S. aureus 209p JC-1; details: Staphylococcus aureus, Muller-Hinton agar, overnight 37° C., read-out: MIC (minimum growth inhibitory concentration)
Description: as §1, §2, §3

S. epidemidis IAM 1296 = test: MIC against standard strains (Table 1), S. epidemidis IAM 1296; details: Muller-Hinton agar, overnight 37° C., read-out: MIC (minimum growth inhibitory concentration)
Description: as §1, §2, §3

A. calcoaceticos T59 = test: MIC against standard strains (Table 1), A. calcoaceticos T59; details: Muller-Hinton agar, overnight 37° C., read-out: MIC (minimum growth inhibitory concentration)
Description: as §1, §2, §3

P. aeruginosa NCTC 10490 = test: MIC against standard strains (Table 1), P. aeruginosa NCTC 10490; details: Pseudomonas aeruginosa, NCTC10490, Muller-Hinton agar, overnight 37° C., read-out: MIC (minimum growth inhibitory concentration)
Description: as §1, §2, §3

P. aeruginosa AKR17 = test: MIC against standard strains (Table 1), P. aeruginosa AKR17; details: Pseudomonas aeruginosa, Muller-Hinton agar, overnight 37° C., read-out: MIC (minimum growth inhibitory concentration)
Description: as §1, §2, §3

C. freundii ATCC 8090 = test: MIC against standard strains (Table 1), C. freundii ATCC 8090; details: Citrobacter freundii, ATCC8090, Muller-Hinton agar, overnight 37° C., read-out: MIC (minimum growth inhibitory concentration)
Description: as §1, §2, §3

S. aureus 167 = test: MIC against standard strains (Table 1), S. aureus 167 (MRSA); details: Staphylococcus aureus, Muller-Hinton agar, overnight 37° C., read-out: MIC (minimum growth inhibitory concentration)
Description: as §1, §2, §3

P. cepacia CN 9113 = test: MIC against standard strains (Table 1), P. cepacia CN 9113; details: Burkholderia cepacia, CN9113, Muller-Hinton agar, overnight 37° C., read-out: MIC (minimum growth inhibitory concentration)
Description: as §1, §2, §3

clinically isolated MRSA = test: Antibacterial potency against clinically isolated MRSA (47 strains); details: Staphylococcus aureus
Description: A test on the antibacterial potency against clinically isolated MRSA was conducted in the following way.
That is, using 47 strains of clinically isolated MRSA, MIC was determined for each of the test strains in accordance with the standard method of the Japan Chemotherapical Society as in Test Example 1, and the minimum growth inhibitory concentration which inhibited growth of 50% of the strains tested was expressed as MIC50 (μg/ml), and the minimum growth inhibitory concentration which inhibited growth of 90% of the strains tested was expressed as MIC90 (μg/ml).
In this test, FMOX was used as the control agent.

Row | Structure (SMILES) | MIC (P. mirabilis IFO 3849) [µg/mL] | MIC (K. pneuminiae IFO 3317) [µg/mL] | MIC (E. cloacae Nek39) [µg/mL] | MIC (B. subtilis ATCC 6633) [µg/mL] | MIC (E. cloacae ATCC 13407) [µg/mL] | MIC (P. vulugaris OX-19) [µg/mL] | MIC (S. aureus 195) [µg/mL] | MIC (A. faecalis ATCC 3750) [µg/mL] | MIC (S. aureus Smith) [µg/mL] | MIC (E. coli JC-2) [µg/mL] | MIC (M. morganii IFO 3848) [µg/mL] | MIC (K. pneuminiae No. 42) [µg/mL] | MIC (M. luteus ATCC 9341) [µg/mL] | MIC (E. coli CSH2(RK1)) [µg/mL] | MIC (S. marcescens No. 16-2) [µg/mL] | MIC (S. marcescens IAM 1184) [µg/mL] | MIC (E. coli CSH2(RE45)) [µg/mL] | MIC (S. aureus 209p JC-1) [µg/mL] | MIC (S. epidemidis IAM 1296) [µg/mL] | MIC (A. calcoaceticos T59) [µg/mL] | also measured
1 | CO/N=C(\C(=O)N[C@@H]1C(=O)N2C(C(=O)[O-])=C(/C=C/C[n+]3cccc(-c4csc(N)n4)c3)CS[C@H]12)c1csc(N)n1 [Compound 5, 7β-[2-(2-aminothiazol-4-yl)-2-syn-methoxyiminoacetamido]-3-[(E)-3-[3-(2-aminothiazol-4-yl)pyridinio]-1-propenyl]-3-cephem-4-carboxylate] | 0.1 (≈ 0.167 µM) | 0.025 (≈ 0.0418 µM) | 3.13 (≈ 5.23 µM) | 0.39 (≈ 0.651 µM) | 0.2 (≈ 0.334 µM) | 0.025 (≈ 0.0418 µM) | 12.5 (≈ 20.9 µM) | 0.78 (≈ 1.3 µM) | 0.39 (≈ 0.651 µM) | 0.025 (≈ 0.0418 µM) | 0.025 (≈ 0.0418 µM) | 0.2 (≈ 0.334 µM) | 0.025 (≈ 0.0418 µM) | 0.05 (≈ 0.0835 µM) | 1.56 (≈ 2.61 µM) | 0.025 (≈ 0.0418 µM) | 0.2 (≈ 0.334 µM) | 0.39 (≈ 0.651 µM) | 0.2 (≈ 0.334 µM) | 12.5 (≈ 20.9 µM) | MIC (P. aeruginosa NCTC 10490): 1.56 µg/mL (≈ 2.61 µM); MIC (P. aeruginosa AKR17): > 100 µg/mL; MIC (C. freundii ATCC 8090): 0.025 µg/mL (≈ 0.0418 µM); MIC (S. aureus 167): 100 µg/mL (≈ 167 µM); MIC (P. cepacia CN 9113): 50 µg/mL (≈ 83.5 µM)
2 | NC(=O)Nc1ccc[n+](C/C=C/C2=C(C(=O)[O-])N3C(=O)[C@@H](NC(=O)/C(=N\O)c4csc(N)n4)[C@H]3SC2)c1 [Compound 13, 7β-[2-(2-aminothiazol-4-yl)-2-syn-hydroxyiminoacetamido]-3-[(E)-3-(3-ureidopyridinio) -1-propenyl]-3-cephem-4-carboxylate] | 0.05 (≈ 0.0918 µM) | 0.025 (≈ 0.0459 µM) | 6.25 (≈ 11.5 µM) | 0.2 (≈ 0.367 µM) | 0.1 (≈ 0.184 µM) | 0.05 (≈ 0.0918 µM) | 1.56 (≈ 2.86 µM) | 0.78 (≈ 1.43 µM) | 0.2 (≈ 0.367 µM) | 0.025 (≈ 0.0459 µM) | 0.025 (≈ 0.0459 µM) | 0.05 (≈ 0.0918 µM) | 0.05 (≈ 0.0918 µM) | 0.05 (≈ 0.0918 µM) | 6.25 (≈ 11.5 µM) | 0.05 (≈ 0.0918 µM) | 0.05 (≈ 0.0918 µM) | 0.1 (≈ 0.184 µM) | 0.025 (≈ 0.0459 µM) | 3.13 (≈ 5.75 µM) | MIC50 (clinically isolated MRSA; concentration inhibiting growth of 50% of 47 clinically isolated MRSA strains): 0.83 µg/mL (≈ 1.52 µM); MIC90 (clinically isolated MRSA; concentration inhibiting growth of 90% of 47 clinically isolated MRSA strains): 5.08 µg/mL (≈ 9.33 µM); MIC (P. aeruginosa NCTC 10490): 1.56 µg/mL (≈ 2.86 µM); MIC (P. aeruginosa AKR17): > 100 µg/mL; MIC (C. freundii ATCC 8090): 0.025 µg/mL (≈ 0.0459 µM); MIC (S. aureus 167): 12.5 µg/mL (≈ 23 µM); MIC (P. cepacia CN 9113): > 100 µg/mL
